# Assay results published in patent US9850278B2, “Synthetic anti-inflammatory peptides and use thereof” (CARMEL-HAIFA UNIVERSITY ECONOMIC CORP., priority 2013, dated 2017).
# “Also recorded” adds a separate entry of the source.
# Experiments:
# [1] = test system: IL-6; experiment: IL-6 secretion by U937-derived human macrophages, supernatant ELISA; format: cell-based; conditions: for IL-6 secretion, effect of peptide (Example 2, FIG. 4C): peptide 1-1000 μM 24 hrs, then LPS 100 ng/ml 24 hours, FKE effect at low concentrations (1-10 μM), others compared with FKE
# Description: (§1) U937 monocytic cells were cultured in 1 ml culture media (RPMI 1640, Biological industries, Beit Haemek), supplemented with 10% Fetal Calf Serum (FCS), 1% pen strep (PS) and 0.04% β-mercaptoethanol) and seeded in 24 well plates (250,000 cells/well). The monocytes underwent differentiation to macrophages with PMA (50 ng/ml) for 48 Hours in a humidified atmosphere (7.5% CO2 at 37° C.). Then the cells were washed using preheated (37° C.) culture medium and synthetic peptides (FKE, SEQ ID NO: 1, or FKD, SEQ ID NO: 3, 0.1-1000 μM) were added to the cells for 24-48 hours. After 24 hours, untreated or peptide-treated cells were activated with lipopolysaccharide (LPS-stimulated, 100 ng/ml for 24 hours). After the indicated incubations, cell free supernatants were collected and their content of IL-10, TGF-β and IL-6 was determined by standard ELISA.
# (§2) The results are presented in FIGS. 1-3 and summarized in Table 1 below (effect considered significant if ±30% of control):
# (§3) U937 monocytic cells were cultured and underwent differentiation to macrophages as described above in Example 1. The cells were then incubated for 24 hrs in the presence of synthetic peptides, at 1-1000 μM: FKE (SEQ ID NO: 1), FKECHLA (SEQ ID NO: 21), FKECH (SEQ ID NO: 4), EKF or YKE (SEQ ID NO: 2). Control cells were left untreated. After 24 hours, untreated or peptide-treated cells were activated with lipopolysaccharide (LPS, 100 ng/ml for 24 hours). Following activation with LPS, cell free supernatants were collected and their content of IL-10, TGF-β, IL-6 and TNF-α was determined by standard ELISA.
# [2] = test system: IL-10; experiment: IL-10 secretion by U937-derived human macrophages, supernatant ELISA; format: cell-based; conditions: for IL-10 secretion, effect of peptide: significant if ±30% of control; for IL-10 secretion, effect of peptide (Example 2, FIG. 4A): peptide 1-1000 μM 24 hrs, then LPS 100 ng/ml 24 hours, FKE effect at low concentrations (1-10 μM), others compared with FKE
# Description: as §1, §2, §3
# [3] = test system: TGF-β; experiment: TGF-β secretion by U937-derived human macrophages, supernatant ELISA; format: cell-based; conditions: for TGF-β secretion, effect of peptide (Example 2, FIG. 4B): peptide 1-1000 μM 24 hrs, then LPS 100 ng/ml 24 hours, FKE effect at low concentrations (1-10 μM), others compared with FKE
# Description: as §1, §2, §3
# [4] = test system: TNF-α; experiment: TNF-α secretion by LPS-activated U937-derived human macrophages, supernatant ELISA; format: cell-based; conditions: peptide 1-1000 μM 24 hrs, then LPS 100 ng/ml 24 hours; FKE effect at low concentrations (1-10 μM); others compared with FKE
# Description: as §3
# [5] = test system: bovine mammary gland epithelial lined cells (BMEC); conditions: reported by Komine et al.; BMEC named for the bovine peptides; cited from earlier work
# [6] = LPS-stimulated macrophages (peptide 24 hrs, then LPS 100 ng/ml 24 hrs)
# [7] = Non-stimulated, 24 hrs, peptide at 1000 μM
# [8] = Non-stimulated, 48 hrs, peptide 0.1-1000 μM
# [9] = peptide at low concentrations (1-10 μM)
substance,measurement,setting,value
Phe-Lys-Glu (FKE),"IL-6 secretion, effect of peptide",[1]; [6],No Increase
same,"IL-6 secretion, effect of peptide",[1]; [7],Increase (at
same,"IL-6 secretion, peptide concentration at which increase starts","[1]; Non-stimulated, 48 hrs",at 0.1 μM)
same,"IL-6 secretion, effect of peptide",[1]; [8],Increase (starts
same,"IL-6 secretion, effect of peptide (Example 2, FIG. 4C)",[1],inhibits
same,"IL-10 secretion, effect of peptide",[2]; [6],increased
same,"IL-10 secretion, peptide concentration of maximal effect","[2]; LPS-stimulated, 24 hrs",1 µM
same,"IL-10 secretion, peptide concentration of maximal effect","[2]; Non-stimulated, 24 hrs",10 µM
same,"IL-10 secretion, peptide concentration of maximal effect","[2]; Non-stimulated, 48 hrs",0.1 µM
same,"IL-10 secretion, effect of peptide (Example 2, FIG. 4A)",[2],induces
same,"IL-10 secretion, effect of peptide (Example 1)",[2]; [9],induces
same,"TGF-β secretion, peptide concentration of maximal effect","[3]; LPS-stimulated, 24 hrs",100 µM
same,"TGF-β secretion, effect of peptide","[3]; Non-stimulated macrophages, 24 hrs incubation, peptide 0.1-1000 μM, significant if ±30% of control",No effect
same,"TGF-β secretion, peptide concentration of maximal effect","[3]; Non-stimulated, 48 hrs",10 µM
same,"TGF-β secretion, effect of peptide (Example 2, FIG. 4B)",[3],inhibits
same,"TGF-β secretion, effect of peptide (Example 1)",[3]; [9],inhibits
same,"TNF-α secretion, effect of peptide (Example 2, FIG. 4D)",[4],inhibits
FKECH,"IL-6 secretion, effect of peptide (Example 2, FIG. 4C)",[1],less active than FKE
same,"IL-10 secretion, effect of peptide (Example 2, FIG. 4A)",[2],less active than FKE
same,"TGF-β secretion, effect of peptide (Example 2, FIG. 4B)",[3],less active than FKE
same,"TNF-α secretion, effect of peptide (Example 2, FIG. 4D)",[4],pronounced activity in inhibiting
"GQKDLLFKDSAI [positions 295-307 of human lactoferrin, Komine et al]","induction of pro-inflammatory cytokines and chemokines (TNF-α, IL-6, IL-8 and MCP-1)",[5],induction
"FKDCHLA [positions 243-249 of human lactoferrin, Komine et al]","induction of pro-inflammatory cytokines and chemokines (TNF-α, IL-6, IL-8 and MCP-1)",[5],induction
phenylalanine-lysine-aspartic acid [FKD],"IL-6 secretion, effect of peptide",[1]; [6],increased; also recorded: Increase (all conc.)
same,"IL-6 secretion, effect of peptide",[1]; [7],Increase (at
same,"IL-6 secretion, peptide concentration at which increase starts","[1]; Non-stimulated, 48 hrs",at 0.1 μM)
same,"IL-6 secretion, effect of peptide",[1]; [8],Increase
same,IL-6 secretion increase relative to FKE,"[1]; Non-stimulated, 48 hrs, fold of FKE",4 fold
same,"IL-10 secretion, effect of peptide",[2]; [6],decreased; also recorded: Decrease (max at
same,"IL-10 secretion, peptide concentration of maximal effect","[2]; LPS-stimulated, 24 hrs",100 µM
same,"IL-10 secretion, effect of peptide","[2]; Non-stimulated macrophages, 24 hrs incubation, peptide 0.1-1000 μM",Decrease (max at
same,"IL-10 secretion, peptide concentration of maximal effect","[2]; Non-stimulated, 24 hrs",1 µM
same,"IL-10 secretion, peptide concentration of maximal effect","[2]; Non-stimulated, 48 hrs",1000 µM
same,"TGF-β secretion, peptide concentration of maximal effect","[3]; LPS-stimulated, 24 hrs",10 µM
same,"TGF-β secretion, peptide concentration of maximal effect","[3]; Non-stimulated, 24 hrs",1 µM
same,"TGF-β secretion, peptide concentration of maximal effect","[3]; Non-stimulated, 48 hrs",10 µM
"Tyr-Lys-Glu (YKE) [synthetic tripeptide, from the corresponding position in murine lactoferrin]","IL-6 secretion, effect of peptide (Example 2, FIG. 4C)",[1],reproduced these effects
same,"IL-10 secretion, effect of peptide (Example 2, FIG. 4A)",[2],did not affect
same,"TNF-α secretion, effect of peptide (Example 2, FIG. 4D)",[4],better inhibition
Glu-Lys-Phe [EKF],"IL-6 secretion, effect of peptide (Example 2, FIG. 4C)",[1],did not reproduce these effects
same,"IL-10 secretion, effect of peptide (Example 2, FIG. 4A)",[2],did not reproduce these effects
same,"TGF-β secretion, effect of peptide (Example 2, FIG. 4B)",[3],did not reproduce these effects
same,"TNF-α secretion, effect of peptide (Example 2, FIG. 4D)",[4],moderate inhibition
"FKECHLA [known bovine lactoferrin-derived synthetic peptide, excluded from Formula I]","IL-6 secretion, effect of peptide (Example 2, FIG. 4C)",[1],reproduced the effects
same,"TNF-α secretion, effect of peptide (Example 2, FIG. 4D)",[4],reproduced the effects
same,"induction of pro-inflammatory cytokines and chemokines (TNF-α, IL-6, IL-8 and MCP-1)",[5],inactive
"GQRDLFKDSAL [bovine counterpart of pep4, Komine et al]","induction of pro-inflammatory cytokines and chemokines (TNF-α, IL-6, IL-8 and MCP-1)",[5],induced
